Test results taken from paper PMC12014616, “HPLC-UV method development and validation for anticancer drug sorafenib and the co-prescribed drug dexamethasone: application to pharmacokinetic evaluation of sorafenib nanoformulations” (Frontiers in Pharmacology, 2025).

Test: Stability of sorafenib-spiked plasma samples at different storage conditions
Format: physicochemical
Procedure: The plasma was separated from the blood by centrifugation at 8,000 rpm for 10 min at […]. The plasma (200 µL) was spiked with sorafenib, dexamethasone, and IS, the protein was precipitated with acetonitrile, and the extraction of the analytes was carried out with ACN, MeOH, and DCM. The following plan was applied to obtain the sample (Figure 2), and a sample (20 µL) was applied for analysis.
Linearity was confirmed through least squares regression, while sensitivity was measured on the basis of the S/N ratio of HPLC software. The S/N ratios are 3 and 10 for LOD and LOQ, respectively. Similar robustness was tested through planned changes in parameters while stability studies were performed at different storage conditions (‒20°C, 4°C, and 25°C) for a month using Equation 3. % Stability=St/So X 100, (3) where St indicates stability at time t, and S0 indicates stability at time 0.

% Recovery (Mean ± SD) (4°C, 6 hours, 250 ng/mL): 98.13 ± 0.19; 0.19% | % Recovery (Mean ± SD) (4°C, 6 hours, 500 ng/mL): 98.29 ± 0.65; 0.66% | % Recovery (Mean ± SD) (4°C, 6 hours, 1,000 ng/mL): 98.91 ± 0.91; 0.92% | % Recovery (Mean ± SD) (4°C, 24 hours, 250 ng/mL): 98.11 ± 0.38; 0.77% | % Recovery (Mean ± SD) (4°C, 24 hours, 500 ng/mL): 98.30 ± 0.67; 0.68% | % Recovery (Mean ± SD) (4°C, 24 hours, 1,000 ng/mL): 98.05 ± 0.68; 0.69% | % Recovery (Mean ± SD) (4°C, 72 hours, 250 ng/mL): 97.36 ± 0.85; 0.87% | % Recovery (Mean ± SD) (4°C, 72 hours, 500 ng/mL): 96.99 ± 0.32; 0.33% | % Recovery (Mean ± SD) (4°C, 72 hours, 1,000 ng/mL): 96.93 ± 0.48; 0.50% | % Recovery (Mean ± SD) (25°C, 0 hours, 250 ng/mL): 98.15 ± 0.44; 0.45% | % Recovery (Mean ± SD) (25°C, 0 hours, 500 ng/mL): 98.25 ± 0.55; 0.56% | % Recovery (Mean ± SD) (25°C, 0 hours, 1,000 ng/mL): 98.55 ± 0.19; 0.19% | % Recovery (Mean ± SD) (25°C, 6 hours, 250 ng/mL): 97.45 ± 0.34; 0.35% | % Recovery (Mean ± SD) (25°C, 6 hours, 500 ng/mL): 97.39 ± 0.12; 0.12% | % Recovery (Mean ± SD) (25°C, 6 hours, 1,000 ng/mL): 98.05 ± 0.15; 0.15% | % Recovery (Mean ± SD) (25°C, 24 hours, 250 ng/mL): 95.51 ± 0.53; 0.55% | % Recovery (Mean ± SD) (25°C, 24 hours, 500 ng/mL): 96.05 ± 0.41; 0.43% | % Recovery (Mean ± SD) (25°C, 24 hours, 1,000 ng/mL): 97.55 ± 0.26; 0.27% | % Recovery (Mean ± SD) (25°C, 72 hours, 250 ng/mL): 85.90 ± 0.50; 0.58% | % Recovery (Mean ± SD) (25°C, 72 hours, 500 ng/mL): 84.95 ± 0.34; 0.40% | % Recovery (Mean ± SD) (25°C, 72 hours, 1,000 ng/mL): 88.25 ± 0.74; 0.84% | % Recovery (Mean ± SD) (freeze and thaw 3x, 250 ng/mL): 96.41 ± 0.17; 0.18% | % Recovery (Mean ± SD) (freeze and thaw 3x, 500 ng/mL): 97.05 ± 0.22; 0.23% | % Recovery (Mean ± SD) (freeze and thaw 3x, 1,000 ng/mL): 98.00 ± 0.87; 0.89%
SMILES: CNC(=O)c1cc(Oc2ccc(NC(=O)Nc3ccc(Cl)c(C(F)(F)F)c3)cc2)ccn1 [sorafenib, Sorafenib]
